# Patent publication US4716222A, “Substrates for hydrolases” (Hoechst Aktiengesellschaft, priority 1984, dated 1987)
# Legend:
# [1] = test system: leukocyte esterase; test: Determination of leukocyte esterase with test strips; format: biochemical; conditions: test strips immersed in leukocyte suspensions
# Method: Indicator paper No. 218 supplied by Macherey-Nage, Dueren, Federal Republic of Germany, was impregnated successively with the following solutions and was dried:
# (a) aqueous boric acid buffer 0.25 mol/l, pH 8
# (b) tosylalanylresorufin 0.25 g dissolved in 1 l of ethyl acetate.
# The drying temperature selected for solution (a) was about 80° C. and that for (b) was about 120° C. The samples used were suspensions containing various concentrations of leukocytes, into which the test strips were briefly immersed. After about 1 minute a red-violet color developed, the intensity of which depended on the concentration of leukocytes. The detection sensitivity of this test system is about 1000 leukocytes per microliter.
# [2] = pKa of the dyes A-OH; format: physicochemical
# Excerpt: The compounds of the formula A--O--B can be used as substrates for the detection and the determination of hydrolases. The dye A--OH, which is liberated on cleavage, has appreciable advantages over those of the state of the art. […] This means that even in the pH range below 7 there is compared with p-nitrophenol, a considerably higher extinction at the same molarity, so that the new substrates prepared from these dyes can therefore be measured with considerably greater sensitivity.
# [3] = Extinction coefficients and absorption maxima of dyes at different pH values; format: physicochemical
# [4] = test system: β-glucosidase; test: Determination of β-glucosidase activity in a urine sample; format: biochemical, human; conditions: for Absorbance Difference/min delta A/min: T = 25° C.
# Excerpt: The determination of β-glucosidase activity in human urine has hitherto not been possible with the usual assays because of their limited sensitivity.
# [5] = target: T1, β-galactosidase (Homo sapiens, UniProt P16278); test: Kinetic determination of β-galactosidase activity in human urine; format: biochemical
# T1 construct: from tissue; host or cells: human urine
# T1 sequence (P16278 29-677): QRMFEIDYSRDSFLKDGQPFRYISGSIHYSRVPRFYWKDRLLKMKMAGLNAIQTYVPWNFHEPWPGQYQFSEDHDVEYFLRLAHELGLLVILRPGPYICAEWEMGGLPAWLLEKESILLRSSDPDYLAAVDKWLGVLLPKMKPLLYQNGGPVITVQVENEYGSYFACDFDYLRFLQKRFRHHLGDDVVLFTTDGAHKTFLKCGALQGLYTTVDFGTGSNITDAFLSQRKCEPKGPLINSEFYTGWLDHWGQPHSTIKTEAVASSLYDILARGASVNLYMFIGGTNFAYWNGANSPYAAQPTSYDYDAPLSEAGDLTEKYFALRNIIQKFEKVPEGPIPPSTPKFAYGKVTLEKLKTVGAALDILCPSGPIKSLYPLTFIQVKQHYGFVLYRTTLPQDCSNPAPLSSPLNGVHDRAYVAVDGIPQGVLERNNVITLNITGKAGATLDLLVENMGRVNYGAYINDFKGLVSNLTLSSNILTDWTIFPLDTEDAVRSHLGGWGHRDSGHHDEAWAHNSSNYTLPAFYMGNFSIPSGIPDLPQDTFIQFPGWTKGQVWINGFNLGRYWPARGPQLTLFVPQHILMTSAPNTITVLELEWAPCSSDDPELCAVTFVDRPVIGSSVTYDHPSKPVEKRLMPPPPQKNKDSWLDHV
# Method: (§1) The β-galactosidase activity could be kinetically measured in human urine by the use of 2H-7-O-(β-D-galactopyranosyl)-4-methyl-8-nitrobenzopyran-2-one (compound S15). An extinction change of 4 mE/min was recorded at 23° C. and 366 nm with the use of 200 μl of buffered substrate solution and 200 μl of urine of normal concentration. […] Also, β-galactosidase in human urine could be kinetically determined by using resorufin-β-D-galactopyranoside (compound S6). […] The activity of β-glucuronidase in human urine could be kinetically measured with 2H-7-O-(β-D-glucuronopyranosyl)-4-methyl-8-nitrobenzopyran-2-one (compound S9).
# [6] = test system: IgE; test: Determination of IgE with a state of the art enzyme immunoassay; conditions: same incubation periods; for absorbance change: same sample
# Method: A substantial increase in sensitivity could be achieved using the new substrates in an enzyme immunoassay of the state of the art. In this assay the IgE concentration is determined, as a measure of an allergy by means of the indirect antibody technique. With the same incubation periods for the different substrates, an approximately 4.3-fold higher absorbance for resorufin-β-galactoside (compound S6) and an approximately 1.7-fold higher absorbance for 3-hydroxy-2-nitropyridine-β-galacto-side was measured than for the commercially available o-nitrophenyl-β-galactoside.
# [7] = test system: N-acetyl-β-glucosaminidase; test: Determination of N-acetylglucosaminidase (enzyme from ox kidney); format: biochemical
# Method: The sensitivity of the substrates p-nitrophenyl N-acetylaminoglucoside and 2H-7-O-(2-acetamido-2-deoxy-D-glucopyranosyl)-4-methyl-8-nitrobenzopyran-2-one ([…]) were compared to each other using N-acetyl-β-glucosaminidase from ox kidney. To 0.5 ml of substrate solution was added 0.1 ml of an enzyme solution diluted 1:101 (Sigma) and the absorbance change determined at 22° C. and 405 or 365 nm.
# [8] = target: T2, N-acetylglucosaminidase (Homo sapiens, UniProt P06865+P07686); test: Kinetic determination of N-acetylglucosaminidase activity in human urine; format: biochemical; conditions: 365 nm, 10-fold concentrated normal urine
# T2 construct: from tissue; host or cells: human urine, 10-fold concentrated
# T2 sequence (P07686 122-556): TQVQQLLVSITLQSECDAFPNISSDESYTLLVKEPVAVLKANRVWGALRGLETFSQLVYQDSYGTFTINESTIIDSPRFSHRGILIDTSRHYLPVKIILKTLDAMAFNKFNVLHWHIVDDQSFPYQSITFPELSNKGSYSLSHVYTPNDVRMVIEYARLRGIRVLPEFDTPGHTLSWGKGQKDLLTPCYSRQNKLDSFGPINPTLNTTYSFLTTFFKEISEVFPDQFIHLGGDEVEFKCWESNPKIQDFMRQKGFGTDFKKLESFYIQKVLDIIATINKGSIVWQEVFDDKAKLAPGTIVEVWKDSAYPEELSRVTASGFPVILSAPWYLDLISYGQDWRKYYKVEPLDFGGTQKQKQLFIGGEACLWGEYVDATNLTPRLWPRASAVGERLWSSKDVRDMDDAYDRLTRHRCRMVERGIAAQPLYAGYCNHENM
# T2 sequence (P06865 89-529): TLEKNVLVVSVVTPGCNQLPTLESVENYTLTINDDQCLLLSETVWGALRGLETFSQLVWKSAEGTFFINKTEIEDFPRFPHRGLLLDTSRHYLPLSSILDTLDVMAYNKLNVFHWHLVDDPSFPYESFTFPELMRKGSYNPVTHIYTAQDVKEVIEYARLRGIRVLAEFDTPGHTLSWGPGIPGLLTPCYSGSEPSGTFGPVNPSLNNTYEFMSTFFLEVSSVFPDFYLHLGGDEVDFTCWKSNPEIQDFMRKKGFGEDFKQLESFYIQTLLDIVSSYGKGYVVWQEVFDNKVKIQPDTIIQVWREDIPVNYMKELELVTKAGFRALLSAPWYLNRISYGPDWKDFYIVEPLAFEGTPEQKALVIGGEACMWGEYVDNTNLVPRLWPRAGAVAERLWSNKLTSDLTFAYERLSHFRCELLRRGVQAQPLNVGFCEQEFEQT
# Method: The activity in human urine (10-fold concentrated) can also be kinetically determined with S8. The determination with 0.5 buffered substrate solution and 0.1 ml 10-fold concentrated normal urine at 37° C. and 365 nm gave an absorbance change of 0,023 A/min at pH 5.5 and of 0,014 A/min at pH 4.5.
# [9] = target: T3, acid phosphatase (Homo sapiens, UniProt P15309); test: Kinetic determination of acid phosphatase in seminal plasma; format: biochemical
# T3 construct: from tissue; host or cells: seminal plasma, diluted 1:101
# T3 sequence (P15309 33-386): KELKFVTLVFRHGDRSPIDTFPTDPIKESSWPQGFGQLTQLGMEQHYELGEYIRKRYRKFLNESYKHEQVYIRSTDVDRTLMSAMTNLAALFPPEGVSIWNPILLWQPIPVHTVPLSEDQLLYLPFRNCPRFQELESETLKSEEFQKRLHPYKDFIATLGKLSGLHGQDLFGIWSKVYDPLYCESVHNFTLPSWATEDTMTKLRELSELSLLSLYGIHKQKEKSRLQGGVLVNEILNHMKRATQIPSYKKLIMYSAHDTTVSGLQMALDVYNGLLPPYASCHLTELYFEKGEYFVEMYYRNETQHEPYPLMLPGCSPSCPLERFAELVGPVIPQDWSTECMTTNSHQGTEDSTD
# Method: The activity of acid phosphatase could be kinetically determined substantially more sensitively with 2H-7-O-4-methyl-8-nitrobenzopyran-2-one phosphate (compound S13) than with nitrophenyl phosphate. The determination was carried out in seminal plasma, diluted 1:101 using both substrates. 0.01 ml of diluted sample was added to 1 ml of a buffered substrate solution, pH 4.8 and the extinction changes kinetically recorded at 405 or 365 nm.
# [10] = test system: β-galactosidase; test: Cleavage of the substrate by β-galactosidase (specificity); format: biochemical
# Method: The activity of the β-galactosidase in human urine could be kinetically determined by the use of 3-O-([…])-3-hydroxy-2-nitropyridine. For this purpose 0.2 ml of 10-fold concentrated normal urine was added to 1 ml of buffered substrate solution and the extinction change recorded at 405 nm and 22° C. Under these conditions an extinction difference of 1.2 mE/min was measured.
# as §1
compound,measurement,setting,value
CC(C)C[C@H](NC(=O)OC(C)(C)C)C(=O)Oc1ccc2nc3ccc(=O)cc-3oc2c1 [Boc-Leu-resorufin],detection sensitivity,[1],2000 leukocytes per microliter
"N#Cc1c2ccc(=O)cc-2oc2cc(O)ccc12 [compound C1, 3H-7-Hydroxy-9-cyanoxanthen-3-one]",pKa,[2],5.55
same,absorption maximum,[3],578 nm
same,molar extinction coefficient,[3]; 578 nm and pH 7.1,"64,420 1.mol^-1.cm^-1"
"O=[N+]([O-])c1ncccc1O[C@@H]1O[C@H](CO)[C@@H](O)[C@H](O)[C@H]1O [compound S5, 3-O-(β-D-Glucopyranosyl)-2-nitropyridine]",fold larger absorbance change per minute than with p-nitrophenyl β-D-glucopyranoside,[4],approximately 7 fold
same,Absorbance Difference/min delta A/min,[4],"0,332 A/min"
"O=c1ccc2nc3ccc(O[C@@H]4O[C@H](CO)[C@H](O)[C@H](O)[C@H]4O)cc3oc-2c1 [compound S6, Resorufin-8-β-D-galactopyranoside]",absorbance change,"[5]; 578 nm, 37° C., human urine","0,0038 A/min"
same,absorbance change,[6]; measuring wavelength 576 nm,0.761
same,fold higher absorbance than o-nitrophenyl-β-galactoside,[6],approximately 4.3 fold
"O=[N+]([O-])c1ncccc1O[C@@H]1O[C@H](CO)[C@H](O)[C@H](O)[C@H]1O [compound S7, 3-O-(β-D-Galactopyranosyl)-2-nitropyridine]",absorbance change,[6]; measuring wavelength 405 nm,0.298
same,fold higher absorbance than o-nitrophenyl-β-galactoside,[6],approximately 1.7 fold
CC(=O)N[C@H]1[C@H](Oc2ccc3c(C)cc(=O)oc3c2[N+](=O)[O-])O[C@H](CO)[C@@H](O)[C@@H]1O [compound S8],"absorbance change, fold greater than with p-nitrophenyl acetylaminoglucoside",[7]; pH 4.5,~36 fold
same,delta A/min,"[7]; pH 4.5, 22° C., 405 or 365 nm, enzyme solution diluted 1:101",0.266 A/min
same,absorbance change,"[8]; pH 4.5, 37° C.","0,014 A/min"
same,absorbance change,"[8]; pH 5.5, 37° C.","0,023 A/min"
"Cc1cc(=O)oc2c([N+](=O)[O-])c(OP(=O)(O)O)ccc12 [compound S13, 2H-7-O-(Phosphoryl)-4-methyl-8-nitrobenzopyran-2-one]","absorbance change, fold greater than for nitrophenyl phosphate",[9],about 13 fold
same,Ratio of the absorbance changes,[9]; relative to p-nitrophenyl phosphate,13
same,delta A/min,"[9]; seminal plasma diluted 1:101, pH 4.8, 405 or 365 nm","0,0975 A/min"
"Cc1cc(=O)oc2c([N+](=O)[O-])c(O[C@@H]3O[C@H](CO)[C@H](O)[C@H](O)[C@H]3O)ccc12 [compound S15, 2H-7-O-(β-Galactopyranosyl)-4-methyl-8-nitrobenzopyran-2-one]",cleavage by β-galactosidase,[10],not cleaved by β-galactosidase
same,extinction change,"[5]; 23° C., 366 nm, 200 μl buffered substrate solution + 200 μl urine of normal concentration",4 mE/min
O=[N+]([O-])c1ccccc1O [o-Nitrophenol],pKa,[2],7.08
same,Extinction coefficient,"[3]; pH 4.0, 405 nm",0.47 1·mol^-1·cm^-1·10^3
same,Extinction coefficient,"[3]; pH 5.0, 405 nm",0.48 1·mol^-1·cm^-1·10^3
same,Extinction coefficient,"[3]; pH 6.0, 405 nm",0.75 1·mol^-1·cm^-1·10^3
same,Extinction coefficient,"[3]; pH 7.1, 405 nm",2.34 1·mol^-1·cm^-1·10^3
same,Extinction coefficient,"[3]; pH 10, 405 nm",4.01 1·mol^-1·cm^-1·10^3
"O=[N+]([O-])c1ccccc1O[C@@H]1O[C@H](CO)[C@H](O)[C@H](O)[C@H]1O [o-Nitrophenyl galactoside, o-nitrophenyl-β-galactoside]",absorbance change,[6]; measuring wavelength 405 nm,0.176
"O=[N+]([O-])c1ccc(O[C@@H]2O[C@H](CO)[C@@H](O)[C@H](O)[C@H]2O)cc1 [p-nitrophenyl derivative, p-nitrophenyl β-D-glucopyranoside]",Absorbance Difference/min delta A/min,[4],"0,0476 A/min"
Cc1ccc(S(=O)(=O)N[C@@H](C)C(=O)Oc2ccc3nc4ccc(=O)cc-4oc3c2)cc1 [tosylalanylresorufin],detection sensitivity,[1],about 1000 leukocytes per microliter
